Among the data in ChEMBL document CHEMBL1133330, “N-benzylpyroglutamyl-L-phenylalanine derivatives as VCAM/VLA-4 antagonists” (Bioorg Med Chem Lett, 2000) are IC50 values, retold here.

Experiment [1] concerns the target T1, Integrin alpha-4/beta-1 (Homo sapiens, UniProt P05556+P13612). As to the kind of experiment: Antagonistic activity against VLA-4 (derived from ramos cells) binding to recombinant human VCAM by ELISA assay. The format is cell-based.
Experiment [2] addresses T1, Integrin alpha-4/beta-1. As to the kind of experiment: Antagonistic activity against VLA-4 binding to recombinant human VCAM by ramos cell assay. The format is cell-based.

T1 sequence (P05556 whole entry): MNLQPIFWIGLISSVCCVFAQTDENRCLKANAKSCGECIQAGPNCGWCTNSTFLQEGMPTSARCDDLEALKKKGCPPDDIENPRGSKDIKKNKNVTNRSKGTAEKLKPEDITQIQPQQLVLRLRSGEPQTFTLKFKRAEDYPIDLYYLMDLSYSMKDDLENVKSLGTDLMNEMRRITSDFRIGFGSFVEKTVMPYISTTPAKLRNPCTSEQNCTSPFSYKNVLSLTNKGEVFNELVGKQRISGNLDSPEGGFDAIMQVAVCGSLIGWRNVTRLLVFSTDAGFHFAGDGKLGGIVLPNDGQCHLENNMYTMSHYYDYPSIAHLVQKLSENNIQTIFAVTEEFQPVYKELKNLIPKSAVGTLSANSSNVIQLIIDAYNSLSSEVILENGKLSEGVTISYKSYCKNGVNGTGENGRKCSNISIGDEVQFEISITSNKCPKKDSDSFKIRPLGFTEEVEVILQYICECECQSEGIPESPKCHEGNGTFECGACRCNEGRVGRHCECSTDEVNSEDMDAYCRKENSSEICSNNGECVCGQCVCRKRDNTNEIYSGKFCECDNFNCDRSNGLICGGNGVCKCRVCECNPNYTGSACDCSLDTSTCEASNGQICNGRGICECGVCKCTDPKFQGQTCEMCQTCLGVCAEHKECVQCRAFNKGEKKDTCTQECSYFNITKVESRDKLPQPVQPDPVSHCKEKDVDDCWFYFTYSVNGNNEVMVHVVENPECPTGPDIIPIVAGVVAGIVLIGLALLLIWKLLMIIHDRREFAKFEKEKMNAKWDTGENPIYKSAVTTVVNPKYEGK
T1 sequence (P13612 whole entry): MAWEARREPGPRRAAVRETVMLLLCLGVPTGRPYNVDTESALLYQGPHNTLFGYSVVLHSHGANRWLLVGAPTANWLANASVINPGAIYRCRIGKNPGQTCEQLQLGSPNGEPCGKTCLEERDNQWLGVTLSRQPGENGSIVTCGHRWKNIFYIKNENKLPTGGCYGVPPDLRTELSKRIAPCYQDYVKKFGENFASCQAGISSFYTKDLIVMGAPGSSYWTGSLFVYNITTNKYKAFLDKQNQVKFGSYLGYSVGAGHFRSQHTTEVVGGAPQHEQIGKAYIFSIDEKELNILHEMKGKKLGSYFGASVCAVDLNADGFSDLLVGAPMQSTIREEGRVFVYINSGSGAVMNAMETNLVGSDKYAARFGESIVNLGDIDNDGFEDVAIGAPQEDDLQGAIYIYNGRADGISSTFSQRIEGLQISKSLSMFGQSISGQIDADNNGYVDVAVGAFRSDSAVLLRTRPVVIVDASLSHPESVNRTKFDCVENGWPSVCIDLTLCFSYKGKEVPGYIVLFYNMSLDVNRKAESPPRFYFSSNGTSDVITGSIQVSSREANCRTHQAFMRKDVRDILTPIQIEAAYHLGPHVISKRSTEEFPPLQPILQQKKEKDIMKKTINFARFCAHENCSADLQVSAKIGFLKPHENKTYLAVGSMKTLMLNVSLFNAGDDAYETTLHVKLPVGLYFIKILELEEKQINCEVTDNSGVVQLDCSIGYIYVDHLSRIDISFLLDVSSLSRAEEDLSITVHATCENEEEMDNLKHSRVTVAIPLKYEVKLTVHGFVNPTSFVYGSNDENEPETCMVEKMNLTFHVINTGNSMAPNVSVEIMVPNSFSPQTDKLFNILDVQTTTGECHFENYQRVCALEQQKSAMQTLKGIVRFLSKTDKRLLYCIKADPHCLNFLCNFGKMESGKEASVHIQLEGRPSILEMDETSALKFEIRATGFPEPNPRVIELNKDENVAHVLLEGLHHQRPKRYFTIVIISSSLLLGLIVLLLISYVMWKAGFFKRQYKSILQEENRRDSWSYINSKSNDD

Broadly, the IC50 is the concentration at which inhibition is half-maximal. For the compound `N#Cc1cccc(C(=O)Nc2ccc(C[C@H](NC(=O)C3CCC(=O)N3Cc3ccccc3)C(=O)O)cc2)c1` (stereo partly drawn), the figures for the half-maximal inhibitory concentration (IC50) in experiment [1] and in experiment [2] were 4.6 nM and 260 nM, respectively.
Take `O=C(O)[C@H](Cc1ccc(COc2ccc([N+](=O)[O-])cc2)cc1)NC(=O)[C@@H]1CCC(=O)N1Cc1ccccc1`: the IC50 in experiment [1] worked out at 32 nM.
`O=C(Nc1ccc(C[C@H](NC(=O)C2CCC(=O)N2Cc2ccccc2)C(=O)O)cc1)c1ccnc2ccccc12` (stereo partly drawn): the half-inhibitory concentration (IC50) in experiment [1] stood at 1.4 nM; in experiment [2] it was 80 nM.
For the compound `COc1ccc(C[C@H](NC(=O)[C@@H]2CCC(=O)N2Cc2ccccc2)C(=O)O)cc1`, the IC50 in experiment [1] is 160 nM.
For `O=C(Nc1ccc(C[C@H](NC(=O)C2CCC(=O)N2Cc2ccccc2)C(=O)O)cc1)c1cc(F)c(F)cc1F` (stereo partly drawn), the IC50 in experiment [1] was found to be 1.6 nM; in experiment [2] it was 127 nM.
As for `CC(=O)N[C@@H](Cc1ccc(O)cc1)C(=O)NCc1ccc(C[C@H](NC(=O)[C@@H]2CCC(=O)N2Cc2ccccc2)C(=O)O)cc1`, the concentration for half-maximal inhibition (IC50) in experiment [1] turned out to be 20 nM.
For the compound `O=C(O)[C@H](Cc1ccc2ccccc2c1)NC(=O)[C@@H]1CCC(=O)N1Cc1ccccc1`, the 50% inhibitory concentration (IC50) in experiment [1] was 59 nM.
Consider `O=C(Nc1ccc(C[C@H](NC(=O)C2CCC(=O)N2Cc2ccccc2)C(=O)O)cc1)c1cc(C(F)(F)F)ccc1C(F)(F)F` (stereo partly drawn), for which the IC50 is 1.1 nM in experiment [1] and 54 nM in experiment [2].
For the compound `O=C(Nc1ccc(C[C@H](NC(=O)C2CCC(=O)N2Cc2ccccc2)C(=O)O)cc1)c1c(Cl)cccc1Cl` (stereo partly drawn), the IC50 in experiment [1] worked out at 0.37 nM; in experiment [2] it was 12 nM.
As for `Cc1ccc(C(=O)Nc2ccc(C[C@H](NC(=O)C3CCC(=O)N3Cc3ccccc3)C(=O)O)cc2)c(Cl)n1` (stereo partly drawn), the IC50 in experiment [1] is 2.4 nM; in experiment [2] it was 33 nM.
On to `N#Cc1ccc(C[C@H](NC(=O)[C@@H]2CCC(=O)N2Cc2ccccc2)C(=O)O)cc1`, for which the half-maximal inhibitory concentration (IC50) in experiment [1] was found to be 1000 nM.
For `O=C(O)[C@H](Cc1ccc([N+](=O)[O-])cc1)NC(=O)[C@@H]1CCC(=O)N1Cc1ccccc1`, the IC50 in experiment [1] stood at 560 nM.
`O=C(O)[C@H](Cc1ccc2c(c1)OCO2)NC(=O)[C@@H]1CCC(=O)N1Cc1ccccc1`: in experiment [1], the 50% inhibitory concentration (IC50) is 220 nM.
Turning to `O=C(O)[C@H](Cc1ccc(/C=C/c2ccc([N+](=O)[O-])cc2)cc1)NC(=O)[C@@H]1CCC(=O)N1Cc1ccccc1`, the half-inhibitory concentration (IC50) in experiment [1] amounted to 90 nM.
Regarding `O=C(Nc1ccc(C[C@H](NC(=O)[C@@H]2CCC(=O)N2Cc2ccccc2)C(=O)O)cc1)c1ccc([N+](=O)[O-])cc1`, the IC50 in experiment [1] is 2.2 nM; in experiment [2], 560 nM.
As to `NS(=O)(=O)c1ccc(C(=O)Nc2ccc(C[C@H](NC(=O)C3CCC(=O)N3Cc3ccccc3)C(=O)O)cc2)cc1` (stereo partly drawn), the figures for the IC50 in experiment [1] and in experiment [2] were 3.5 nM and 1060 nM, respectively.
For the compound `COc1ccc(C(=O)Nc2ccc(C[C@H](NC(=O)C3CCC(=O)N3Cc3ccccc3)C(=O)O)cc2)c(OC)n1` (stereo partly drawn), the results for the concentration for half-maximal inhibition (IC50) in experiment [1] and in experiment [2] were 2.4 nM and 102 nM, respectively.
With `O=C(Nc1ccc(C[C@H](NC(=O)[C@@H]2CCC(=O)N2Cc2ccccc2)C(=O)O)cc1)c1ccccc1`, the half-inhibitory concentration (IC50) in experiment [1] came out at 6.3 nM; in experiment [2], 310 nM.
As to `O=C(O)[C@H](Cc1ccc(CCc2ccccc2)cc1)NC(=O)[C@@H]1CCC(=O)N1Cc1ccccc1`, in experiment [1], the 50% inhibitory concentration (IC50) stood at 38 nM.
In the case of `O=C(NCc1ccc(C[C@H](NC(=O)[C@@H]2CCC(=O)N2Cc2ccccc2)C(=O)O)cc1)c1cccnc1`, the IC50 in experiment [1] is 53 nM.
In the case of `O=C(O)[C@H](Cc1ccc(CO)cc1)NC(=O)[C@@H]1CCC(=O)N1Cc1ccccc1`, in experiment [1], the half-inhibitory concentration (IC50) is 152 nM.
In the case of `CC(=O)N[C@H](Cc1ccc(O)cc1)C(=O)Nc1ccc(C[C@H](NC(=O)[C@@H]2CCC(=O)N2Cc2ccccc2)C(=O)O)cc1`, the IC50 in experiment [1] stood at 5.3 nM; in experiment [2] it was 1900 nM.
As to `[N-]=[N+]=NCc1ccc(C[C@H](NC(=O)[C@@H]2CCC(=O)N2Cc2ccccc2)C(=O)O)cc1`, the concentration for half-maximal inhibition (IC50) in experiment [1] is 74 nM.
In the case of `O=C(Nc1ccc(C[C@H](NC(=O)C2CCC(=O)N2Cc2ccccc2)C(=O)O)cc1)c1cccnc1O` (stereo partly drawn), the half-inhibitory concentration (IC50) in experiment [1] turned out to be 4 nM; in experiment [2], 1850 nM.
For `Cc1ccc([N+](=O)[O-])cc1C(=O)Nc1ccc(C[C@H](NC(=O)C2CCC(=O)N2Cc2ccccc2)C(=O)O)cc1` (stereo partly drawn), the IC50 worked out at 0.26 nM in experiment [1] and 11 nM in experiment [2].
The corresponding values for `Cc1ccc([N+](=O)[O-])c(C(=O)Nc2ccc(C[C@H](NC(=O)C3CCC(=O)N3Cc3ccccc3)C(=O)O)cc2)c1` (stereo partly drawn) are 0.74 nM and 77 nM.
For the compound `COc1ccc(-c2cccnc2C(=O)Nc2ccc(C[C@H](NC(=O)C3CCC(=O)N3Cc3ccccc3)C(=O)O)cc2)cc1` (stereo partly drawn), the IC50 was found to be 0.88 nM in experiment [1] and 29 nM in experiment [2].
As to `O=C(O)[C@H](Cc1ccc(OCc2ccc([N+](=O)[O-])cc2)cc1)NC(=O)[C@@H]1CCC(=O)N1Cc1ccccc1`, in experiment [1], the IC50 was 18 nM.
Same read-out and setting: the result for `O=C(O)[C@H](Cc1ccc(C#Cc2ccccc2)cc1)NC(=O)[C@@H]1CCC(=O)N1Cc1ccccc1` reads 53 nM.
For the compound `O=C(Nc1ccc(C[C@H](NC(=O)C2CCC(=O)N2Cc2ccccc2)C(=O)O)cc1)c1ccccn1` (stereo partly drawn), the concentration for half-maximal inhibition (IC50) in experiment [1] worked out at 3.6 nM; in experiment [2], 260 nM.
Consider `COc1ccc([N+](=O)[O-])cc1C(=O)Nc1ccc(C[C@H](NC(=O)C2CCC(=O)N2Cc2ccccc2)C(=O)O)cc1` (stereo partly drawn), for which the IC50 was 0.82 nM in experiment [1] and 28 nM in experiment [2].
As for `O=C(Nc1ccc(C[C@H](NC(=O)C2CCC(=O)N2Cc2ccccc2)C(=O)O)cc1)c1ccc(Cl)cc1[N+](=O)[O-]` (stereo partly drawn), the values for the concentration for half-maximal inhibition (IC50) in experiment [1] and in experiment [2] were 0.37 nM and 7 nM, respectively.
The like results for `O=C(Nc1ccc(C[C@H](NC(=O)C2CCC(=O)N2Cc2ccccc2)C(=O)O)cc1)c1ccccc1[N+](=O)[O-]` (stereo partly drawn) were, in that order, 0.87 nM and 33 nM.
As for `O=C(O)[C@H](Cc1ccc(NS(=O)(=O)c2cccc(C(F)(F)F)c2)cc1)NC(=O)[C@@H]1CCC(=O)N1Cc1ccccc1`, the half-maximal inhibitory concentration (IC50) in experiment [1] amounted to 20 nM; in experiment [2], 26000 nM.
As for `O=C(Nc1ccc(C[C@H](NC(=O)C2CCC(=O)N2Cc2ccccc2)C(=O)O)cc1)c1ccc(F)cc1C(F)(F)F` (stereo partly drawn), the IC50 in experiment [1] worked out at 0.75 nM; in experiment [2], 28 nM.
With `O=C(O)[C@H](Cc1ccc(NS(=O)(=O)c2ccc([N+](=O)[O-])cc2)cc1)NC(=O)[C@@H]1CCC(=O)N1Cc1ccccc1`, the values for the IC50 in experiment [1] and in experiment [2] were 17 nM and 16000 nM, respectively.
In the case of `CC(=O)N[C@@H](Cc1ccc(O)cc1)C(=O)Nc1ccc(C[C@H](NC(=O)[C@@H]2CCC(=O)N2Cc2ccccc2)C(=O)O)cc1`, the half-maximal inhibitory concentration (IC50) turned out to be 8.2 nM in experiment [1] and 2100 nM in experiment [2].
Turning to `O=C(O)[C@H](Cc1cccc2ccccc12)NC(=O)[C@@H]1CCC(=O)N1Cc1ccccc1`, in experiment [1], the IC50 came out at 230 nM.
Take `CC1CCC(C[C@H](NC(=O)[C@@H]2CCC(=O)N2Cc2ccccc2)C(=O)O)CC1` (stereo partly drawn): the concentration for half-maximal inhibition (IC50) in experiment [1] worked out at 42500 nM.
Still for that read-out and setting: next, `O=C(O)[C@H](Cc1ccccc1)NC(=O)[C@@H]1CCC(=O)N1Cc1ccccc1`: 460 nM.
